Experimental data as given in US4080460A, “Biguanides and therapeutic compositions and uses of the same” (Aron Sarl, priority 1975, dated 1978).
Structures can show the parent of a compound that is named as a salt. Where two headings read alike, the source gives them in different places.

Experiments:
[1] = system: uptake of ^3 H noradrenalin by the synaptosomes of a rat hypothalamus homogenate; experiment: inhibition of the uptake of ^3 H noradrenalin by the synaptosomes of a rat hypothalamus homogenate; format: biochemical; details: with respect to the control test
Description: The compounds of the formula (I) are capable of modifying the accumulation of noradrenalin and particularly to inhibit the uptake of ^3 H noradrenalin by the synaptosomes of a rat hypothalamus homogenate prepared according to Banerjee, Snyder and Mechoulam (J. Pharmacol. Exp. Ther., 194, 1, 74, 1975). This inhibition of the uptake of ^3 H noradrenaline is a known property of various compounds having an activity on the central nervous system and/or on the sympathetic nervous system, particularly a hypotensive effect (J. Glowinski and J. Axelrod, Effects of Drugs on the Disposition of ^3 H norepinephrine in the Rat Brain, Pharmacological Reviews, Vol. 18, n°1, Part I, 1966).
They are expressed as percent inhibition of the uptake with respect to the control test.

Doca rats = experiment: action on the control of blood pressure in Doca rats; format: in vivo, rat; details: oral, 2 × 3 mg/kg
Procedure: (§1) The above results are confirmed by the results of an investigation of the action on the control of blood pressure. On oral administration of a dosage of 2 × 3 mg/kg of compound to Doca rats (Technique according to Green and co-workers, Am. J. Physiol, 1952, 170, p.94) and to Grollman rats (Techniques according to Grollman, Proc. Soc. Exp. Biol. Med., 1944, 57, p.102), the precent decrease of the systolic blood pressure with respect to its original value is noted.

[2] = acute toxicity investigation in mice; details: mouse, in vivo
Grollman rats = experiment: action on the control of blood pressure in Grollman rats; format: in vivo, rat; details: oral, 2 × 3 mg/kg
Procedure: as §1

[3] = 5 × 10^-5 M ultimate concentration
[4] = 5 × 10^-6 M ultimate concentration
[5] = iv, read-out: LD50 (mg/kg) i.v.
[6] = po, read-out: LD50 (mg/kg) p.o.
[7] = 5 × 10^-4 M ultimate concentration

Cc1conc1NC(=N)NC(=N)N [Example 8]
inhibition % of the uptake of ^3 H noradrenalin [1, 3]: 55%
inhibition % of the uptake of ^3 H noradrenalin [1, 4]: 36%
percent decrease of the systolic blood pressure with respect to its original value (Doca rats): 15%
LD50 [2, 5]: 70 mg/kg
LD50 [2, 6]: 300 mg/kg
percent decrease of the systolic blood pressure with respect to its original value (Grollman rats): 15%

Cc1cc(NC(=N)NC(=N)N(C)C)no1 [Example 3]
inhibition % of the uptake of ^3 H noradrenalin [1, 7]: 47.9%
LD50 [2, 5]: 140 mg/kg
LD50 [2, 6]: 800 mg/kg
percent decrease of the systolic blood pressure with respect to its original value (Grollman rats): 10%

CCN(C(=N)NC(=N)N)c1cc(C)on1 [Example 16]
inhibition % of the uptake of ^3 H noradrenalin [1, 7]: 37.9%
LD50 [2, 6]: > 750 mg/kg

CCCCNC(=N)NC(=N)Nc1cc(C)on1 [Example 13]
inhibition % of the uptake of ^3 H noradrenalin [1, 7]: 63.1%
LD50 [2, 5]: 35 mg/kg
LD50 [2, 6]: 250 mg/kg

Cc1cc(NC(=N)NC(=N)N2CCN(C)CC2)no1 [Example 19]
inhibition % of the uptake of ^3 H noradrenalin [1, 7]: 53.8%
LD50 [2, 5]: 100 mg/kg
LD50 [2, 6]: 2000 mg/kg
percent decrease of the systolic blood pressure with respect to its original value (Grollman rats): 20%

Cc1cc(N(C)C(=N)NC(=N)N)no1 [Example 7]
inhibition % of the uptake of ^3 H noradrenalin [1, 7]: 48.1%
percent decrease of the systolic blood pressure with respect to its original value (Doca rats): 15%

Cc1cc(NC(=N)NC(=N)N2CCOCC2)no1 [Example 20]
inhibition % of the uptake of ^3 H noradrenalin [1, 7]: 46.6%
LD50 [2, 5]: 100 mg/kg
LD50 [2, 6]: 750 mg/kg

CNC(=N)NC(=N)Nc1cc(C)on1 [Example 2, 1-methyl-5-(5-methyl-isoxazol-3-yl)biguanide]
inhibition % of the uptake of ^3 H noradrenalin [1, 7]: 53.6%
LD50 [2, 6]: 900 mg/kg

Cc1noc(NC(=N)NC(=N)N(C)C)c1C [Example 22]
inhibition % of the uptake of ^3 H noradrenalin [1, 7]: 38.1%
LD50 [2, 6]: 700 mg/kg

Cc1cc(NC(=N)NC(=N)N)no1 [Example 1, (5-methyl-isoxazol-3-yl)biguanide hydrochloride]
percent decrease of the systolic blood pressure with respect to its original value (Doca rats): 25%
LD50 [2, 5]: 115 mg/kg
LD50 [2, 6]: 700 mg/kg
percent decrease of the systolic blood pressure with respect to its original value (Grollman rats): 20%

Cc1conc1NC(=N)NC(=N)N(C)C [Example 11]
inhibition % of the uptake of ^3 H noradrenalin [1, 7]: 60.1%
percent decrease of the systolic blood pressure with respect to its original value (Doca rats): 15%
LD50 [2, 5]: 40 mg/kg
LD50 [2, 6]: 300 mg/kg

CCCCc1cc(NC(=N)NC(=N)N)no1 [Example 5]
inhibition % of the uptake of ^3 H noradrenalin [1, 7]: 69.5%
percent decrease of the systolic blood pressure with respect to its original value (Doca rats): 10%
LD50 [2, 6]: 600 mg/kg

CCc1cc(NC(=N)NC(=N)N)no1 [Example 4]
inhibition % of the uptake of ^3 H noradrenalin [1, 7]: 52.7%
LD50 [2, 5]: 45 mg/kg
LD50 [2, 6]: 500 mg/kg

CC(C)c1cc(NC(=N)NC(=N)N)no1 [Example 6]
inhibition % of the uptake of ^3 H noradrenalin [1, 3]: 54.6%
LD50 [2, 6]: 200 mg/kg

Cc1onc(N(C)C(=N)NC(=N)N)c1C [Example 10]
inhibition % of the uptake of ^3 H noradrenalin [1, 7]: 19.5%
LD50 [2, 5]: 100 mg/kg
LD50 [2, 6]: > 500 mg/kg

CCc1conc1NC(=N)NC(=N)N [Example 14]
inhibition % of the uptake of ^3 H noradrenalin [1, 3]: 61.8%
inhibition % of the uptake of ^3 H noradrenalin [1, 4]: 46.5%
LD50 [2, 6]: 500 mg/kg

N=C(N)NC(=N)Nc1ccon1 [Example 9]
inhibition % of the uptake of ^3 H noradrenalin [1, 7]: 68.6%
LD50 [2, 5]: > 150 mg/kg
LD50 [2, 6]: > 1000 mg/kg
